A short description of data set [1]: Clinical ROSED during Photofrin-mediated pleural PDT (light fluence, Photofrin concentration, DCS blood flow). In kind it is in vivo, human. As to the method:
Patients with pathologically confirmed epithelioid malignant pleural mesothelioma were enrolled in a phase II randomized clinical trial of extended pleurectomy/decortication with or without Photofrin-mediated PDT. Photofrin (provided by Pinnacle Biologics, Chicago, IL, USA) was administered at 2 mg per kg of body weight as an intravenous infusion approximately 24 hours prior to the anticipated time of intra-operative PDT. After surgically resecting all gross disease, PDT treatment was performed with 630 nm light to a total fluence of 60 J/cm^2 as previously described (24-28). Briefly, the pleural cavity was filled with diluted Intralipid solution to aid with light scattering and 60 J/cm^2 630 nm light was delivered to the pleural cavity via an optical fiber inserted into modified endotracheal tube filled with 0.1% Intralipid. Homogeneous light delivery is accomplished by continuously moving the light source around the pleural cavity b with continuous feedback monitoring of light fluence rate and cumulative fluence provided by 8 isotropic detectors (Medlight, Switzerland) sutured to the chest wall. Four of the eight isotropic detectors were used to monitor the light dose and Photofrin fluorescence simultaneously. Long pass filters (Semrock, Inc., Rochester, NY, USA) were used to block the treatment light before the fluorescence was recorded by 4 single channel spectrometers (Exemplar, B&W Tek, Inc., Newark, DE, USA).
PDT dose dosimeter consists of photodiodes for light fluence rates measurements and spectrometers for fluorescence measurements. More details about PDT dosimeter and the quantification of absolute Photofrin concentration from measured fluorescence spectra can be found in (19).
Measurement of blood flow during clinical PDT: DCS monitoring of tissue blood flow during pleural PDT was implemented using a custom built DCS contact probe as shown in FIG. 15B. The contact probe consists of a side-firing multimode source fiber and three single mode detector fibers polished at 45°. Light from a continuous wave 785-nm laser with long coherence length was delivered through the source fiber, and the reflected diffuse light was collected using the detector fibers located at 0.4, 0.7 and 1.0-cm from the source fiber. Three single photon counting avalanche photodiodes were used to detect the diffuse light in parallel. The DCS probe was mounted onto a clear acrylic rectangle pad with small holes at each corner that allowed it to be sutured adjacent to one of the isotropic detectors measuring light fluence rate and photosensitizer fluorescence data. Tissue blood flow was measured continuously throughout the PDT treatment. The study started with one DCS contact probe for the first 2 patients, and it was later expanded for the next 5 patients to include the second DCS contact probe to enable simultaneous measurements of blood flow at two different pleural sites.
Calculation of [ROS]rx using ROSED: The PDT process is described by a set of kinetic equations which can be simplified to compute the production of [ROS]rx (4, 8, 9, 13). These equations are dependent on the temporal and spatial distribution of light fluence rate (ϕ), photosensitizer concentration ([S0]), ground state oxygen concentration ([^3O2]), oxygen supply rate (g), and the photosensitizer-specific reaction-rate parameters (δ, β, σ, and ξ). The relevant equations are: […]
Since Photofrin concentration and tissue oxygen were measured in this study, only Eq. (A3) is needed to calculate for [ROS]rx. For the calculation of [ROS]rx, the term on the right-hand side of Eq. (A3) is integrated over the time course of PDT treatment using the measured value of [^3O2], [S0], and light fluence rate. In vivo light fluence rate distribution can be estimated from the in-air light fluence rate using a 6-parameter analytic expression (29). Tissue optical properties needed for this calculation were obtained from diffuse reflectance measurements using the multi-fiber contact probe. […]

Data set [2] can be described thus: 10 min mock treatment in liquid tissue-simulating phantom with moving light source. The format is physicochemical. The note with it: 3 mg kg^−1 Photofrin, 0-70 mW cm^−2. As to the method:
Excitation light intensity varies vastly during PDT as the light source was constantly circulated around in the lung cavity by the physician. To test the performance of the PDT dosimetry system in measuring Photofrin fluorescence with varying excitation light intensities, a 10 min mock treatment was performed using liquid tissue-simulating phantom (μa=0.3 cm^−1 and μ′s=9.6 cm^−1) with known Photofrin concentration of 3 mg kg^−1 and a moving light source. The fluorescence spectra were measured at the surface of the phantom using isotropic detectors as described above. The treatment started with the treatment light wand positioned at a fixed distance above the phantom for 1 min. The average fluence rate measured on the surface was 50 mW cm^−2. Then the light wand was moved randomly over the top of the phantom to simulate the variations in the light fluence rate due to the movement of treatment light source in the pleural cavity during PDT treatment. […] The Photofrin concentrations obtained from measured Photofrin fluorescence spectra using data analysis method described above are plotted as a function of treatment time as shown in FIG. 4B. Each data point represents Photofrin concentration obtained from one fluorescence spectrum and the solid lines represent the average Photofrin concentration calculated for every 1 min of data. […]

Setting [3] is: average of 12 sites, 7 patients.

Take Photofrin: the “range of calculated [ROS]rx” value in data set [1] (12 sites, 7 patients) is on record as 0.31−1.17 mM. Further, the “photobleaching (mean Photofrin concentrations during PDT)” value in data set [1] (all measurement sites and all patients) was “no sign of photobleaching”. The “[ROS]rx” value in data set [1] (at surface, per patient and pleural site, ROSED with blood-flow-derived oxygen, pleural apex) is listed as 0.59 mM. Moreover, in data set [1] (setting [3]), the “mean (standard deviation) calculated [ROS]rx” value was 0.59 ± 0.25 mM and the “mean Photofrin concentration of all pleural tissues” value was found to be 6.2 ± 2.1 mg/kg. Further, the “[Photofrin]” value in data set [1] (mean corrected concentration per patient and pleural site, 2 mg per kg i.v. about 24 h before PDT, pleural apex) amounted to 3.9 mg/kg. The “photobleaching of Photofrin during mock treatment” value in data set [2] is “negligible photobleaching”.
